Laboratory results taken from patent US20240299400A1, “Transcription Factor GLI1 Inhibitors and Uses Thereof” (University of Connecticut, priority 2023, published 2024).

Tests used:
DYRK2 = target: T1, DYRK2 (Homo sapiens, UniProt Q92630); test: LanthaScreen binding assay, DYRK2; settings: average of three replicates, read-out: % inhibition of the kinase DYRK2
T1 construct: purchased ThermoFisher Scientific (Madison, WI, USA), contract service
T1 sequence (Q92630 1-601): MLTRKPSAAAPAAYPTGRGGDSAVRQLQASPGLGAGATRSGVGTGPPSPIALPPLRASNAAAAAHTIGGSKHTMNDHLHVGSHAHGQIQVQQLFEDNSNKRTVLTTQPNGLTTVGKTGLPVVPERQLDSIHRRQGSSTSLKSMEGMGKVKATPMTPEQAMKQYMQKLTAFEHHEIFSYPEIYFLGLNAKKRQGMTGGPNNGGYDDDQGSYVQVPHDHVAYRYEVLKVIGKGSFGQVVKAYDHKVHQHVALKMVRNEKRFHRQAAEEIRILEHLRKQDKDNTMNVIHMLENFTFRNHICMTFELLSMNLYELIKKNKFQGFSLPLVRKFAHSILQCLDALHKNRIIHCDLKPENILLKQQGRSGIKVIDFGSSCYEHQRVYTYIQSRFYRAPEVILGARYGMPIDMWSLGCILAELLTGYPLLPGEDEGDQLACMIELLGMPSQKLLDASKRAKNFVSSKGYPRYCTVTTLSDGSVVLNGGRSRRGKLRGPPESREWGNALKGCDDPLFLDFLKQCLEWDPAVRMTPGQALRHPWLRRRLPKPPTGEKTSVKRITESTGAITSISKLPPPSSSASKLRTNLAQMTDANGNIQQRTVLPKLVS
Method: (§1) Kinase screening experiments. Kinase inhibition/binding experiments were performed by ThermoFisher Scientific (Madison, WI, USA) as a contract service, utilizing their default protocols [G. Yernale, A comprehensive review on the biological interest of quinoline and its derivatives. Bioorg. Med. Chem. 32 (2021) 115973]. Briefly, for ZLyte assay, compound in DMSO (100 nL), kinase buffer (2.4 μL), peptide/kinase mixture (5 μL), and ATP solution (2.5 μL) were mixed in a black 384-well plate. Following a 30 s plate shake to mix reagents, the kinase assay mixture was incubated at RT for 60 min. Following addition of the development reagent solution to each well, another 60 min incubation was performed at RT for reaction development. Fluorescent signal was recorded and subsequently analyzed.
(§2) For the LanthaScreen Binding assay, compounds in DMSO (160 nL), kinase buffer (3.84 μL), kinase/antibody mixture (8.0 μL), and tracer (4.0 μL) were mixed in a white 384-well plate. Following a 30 s plate shake to mix the reagents, the kinase assay mixture was incubated at RT for 60 min. Fluorescent signals were recorded and subsequently analyzed.

TGFBR1 = target: T2, TGFBR1 (Homo sapiens, UniProt P36897); test: LanthaScreen binding assay, TGFBR1; settings: average of three replicates, read-out: % inhibition of the kinase TGFBR1
T2 construct: purchased ThermoFisher Scientific (Madison, WI, USA), contract service
T2 sequence (P36897 34-503): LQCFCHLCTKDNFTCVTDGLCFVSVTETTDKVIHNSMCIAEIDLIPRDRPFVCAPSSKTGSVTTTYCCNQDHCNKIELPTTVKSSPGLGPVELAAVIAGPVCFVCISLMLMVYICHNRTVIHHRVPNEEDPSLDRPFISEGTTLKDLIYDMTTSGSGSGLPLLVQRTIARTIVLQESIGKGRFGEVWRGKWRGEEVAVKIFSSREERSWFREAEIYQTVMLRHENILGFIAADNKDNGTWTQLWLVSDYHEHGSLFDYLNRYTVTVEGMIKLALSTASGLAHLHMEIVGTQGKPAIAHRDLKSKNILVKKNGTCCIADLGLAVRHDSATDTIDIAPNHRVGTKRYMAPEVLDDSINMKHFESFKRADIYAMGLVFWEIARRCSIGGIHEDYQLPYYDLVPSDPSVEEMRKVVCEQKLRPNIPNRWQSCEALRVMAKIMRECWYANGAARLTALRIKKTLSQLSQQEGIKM
Method: as §1, §2

PIK3C2A = target: T3, PIK3C2A (Homo sapiens, UniProt O00443); test: Adapta kinase assay, PIK3C2A; format: biochemical; settings: average of three replicates
T3 construct: purchased ThermoFisher Scientific (Madison, WI, USA), contract service
Method: as §1
For the Adapta assay, compounds in DMSO (100 nL), 30 mM HEPES buffer (2.4 μL), substrate/kinase mixture (5 μL), and ATP solution (2.5 μL) were mixed in a white 384-well plate. Following a 30 s plate shake to mix the reagents and a 1 min centrifuge at 1000 g, the kinase assay mixture was incubated at RT for 60 min. Following addition of the detection mix (5 μL) to each well, 30 s plate shaking, and 1 min centrifuge at 1000 g, another 60 min incubation was performed at RT for equilibration. Fluorescent signals were recorded and subsequently analyzed.

AKT1 = target: T4, AKT1 (Homo sapiens, UniProt P31749); test: ZLyte kinase assay, AKT1; format: biochemical; settings: average of three replicates
T4 construct: purchased ThermoFisher Scientific (Madison, WI, USA), contract service
Method: as §1

CSF1R = target: T5, CSF1R (Homo sapiens, UniProt P07333); test: ZLyte kinase assay, CSF1R; format: biochemical; settings: average of three replicates
T5 construct: purchased ThermoFisher Scientific (Madison, WI, USA), contract service
Method: as §1

CSNK2A1 = target: T6, CSNK2A1 (Homo sapiens, UniProt P68400); test: ZLyte kinase assay, CSNK2A1; format: biochemical; settings: average of three replicates
T6 construct: purchased ThermoFisher Scientific (Madison, WI, USA), contract service
Method: as §1

DYRKIA = target: T7, DYRKIA (Homo sapiens, UniProt Q13627); test: ZLyte kinase assay, DYRKIA; format: biochemical; settings: average of three replicates
T7 construct: purchased ThermoFisher Scientific (Madison, WI, USA), contract service
Method: as §1

DYRK1B = target: T8, DYRK1B (Homo sapiens, UniProt Q9Y463); test: ZLyte kinase assay, DYRK1B; format: biochemical; settings: average of three replicates
T8 construct: purchased ThermoFisher Scientific (Madison, WI, USA), contract service
Method: as §1

GSK3B = target: T9, GSK3B (Homo sapiens, UniProt P49841); test: ZLyte kinase assay, GSK3B; format: biochemical; settings: average of three replicates
T9 construct: purchased ThermoFisher Scientific (Madison, WI, USA), contract service
Method: as §1

IGF1R = target: T10, IGF1R (Homo sapiens, UniProt P08069); test: ZLyte kinase assay, IGF1R; format: biochemical; settings: average of three replicates
T10 construct: purchased ThermoFisher Scientific (Madison, WI, USA), contract service
Method: as §1

MAP2K2 = target: T11, MAP2K2 (Homo sapiens, UniProt P36507); test: ZLyte kinase assay, MAP2K2; format: biochemical; settings: average of three replicates
T11 construct: purchased ThermoFisher Scientific (Madison, WI, USA), contract service
Method: as §1

MAPK1 = target: T12, MAPK1 (Homo sapiens, UniProt P28482); test: ZLyte kinase assay, MAPK1; format: biochemical; settings: average of three replicates
T12 construct: purchased ThermoFisher Scientific (Madison, WI, USA), contract service
Method: as §1

MET = target: T13, MET (Homo sapiens, UniProt P08581); test: ZLyte kinase assay, MET; format: biochemical; settings: average of three replicates
T13 construct: purchased ThermoFisher Scientific (Madison, WI, USA), contract service
Method: as §1

PRKACA = target: T14, PRKACA (Homo sapiens, UniProt P17612); test: ZLyte kinase assay, PRKACA; format: biochemical; settings: average of three replicates
T14 construct: purchased ThermoFisher Scientific (Madison, WI, USA), contract service
Method: as §1

RET = target: T15, RET (Homo sapiens, UniProt P07949); test: ZLyte kinase assay, RET; format: biochemical; settings: average of three replicates
T15 construct: purchased ThermoFisher Scientific (Madison, WI, USA), contract service
Method: as §1

SRC kinase = target: T16, SRC kinase (Homo sapiens, UniProt P12931); test: ZLyte kinase assay, SRC; format: biochemical; settings: for inhibition at 1 µM: ZLyte, average of three replicates; for concentration-dependent inhibition of SRC kinase (in words): FIG. 6, representative experiment in triplicate
T16 construct: purchased ThermoFisher Scientific (Madison, WI, USA), contract service
Method: as §1

T10 sequence (P08069 31-1367): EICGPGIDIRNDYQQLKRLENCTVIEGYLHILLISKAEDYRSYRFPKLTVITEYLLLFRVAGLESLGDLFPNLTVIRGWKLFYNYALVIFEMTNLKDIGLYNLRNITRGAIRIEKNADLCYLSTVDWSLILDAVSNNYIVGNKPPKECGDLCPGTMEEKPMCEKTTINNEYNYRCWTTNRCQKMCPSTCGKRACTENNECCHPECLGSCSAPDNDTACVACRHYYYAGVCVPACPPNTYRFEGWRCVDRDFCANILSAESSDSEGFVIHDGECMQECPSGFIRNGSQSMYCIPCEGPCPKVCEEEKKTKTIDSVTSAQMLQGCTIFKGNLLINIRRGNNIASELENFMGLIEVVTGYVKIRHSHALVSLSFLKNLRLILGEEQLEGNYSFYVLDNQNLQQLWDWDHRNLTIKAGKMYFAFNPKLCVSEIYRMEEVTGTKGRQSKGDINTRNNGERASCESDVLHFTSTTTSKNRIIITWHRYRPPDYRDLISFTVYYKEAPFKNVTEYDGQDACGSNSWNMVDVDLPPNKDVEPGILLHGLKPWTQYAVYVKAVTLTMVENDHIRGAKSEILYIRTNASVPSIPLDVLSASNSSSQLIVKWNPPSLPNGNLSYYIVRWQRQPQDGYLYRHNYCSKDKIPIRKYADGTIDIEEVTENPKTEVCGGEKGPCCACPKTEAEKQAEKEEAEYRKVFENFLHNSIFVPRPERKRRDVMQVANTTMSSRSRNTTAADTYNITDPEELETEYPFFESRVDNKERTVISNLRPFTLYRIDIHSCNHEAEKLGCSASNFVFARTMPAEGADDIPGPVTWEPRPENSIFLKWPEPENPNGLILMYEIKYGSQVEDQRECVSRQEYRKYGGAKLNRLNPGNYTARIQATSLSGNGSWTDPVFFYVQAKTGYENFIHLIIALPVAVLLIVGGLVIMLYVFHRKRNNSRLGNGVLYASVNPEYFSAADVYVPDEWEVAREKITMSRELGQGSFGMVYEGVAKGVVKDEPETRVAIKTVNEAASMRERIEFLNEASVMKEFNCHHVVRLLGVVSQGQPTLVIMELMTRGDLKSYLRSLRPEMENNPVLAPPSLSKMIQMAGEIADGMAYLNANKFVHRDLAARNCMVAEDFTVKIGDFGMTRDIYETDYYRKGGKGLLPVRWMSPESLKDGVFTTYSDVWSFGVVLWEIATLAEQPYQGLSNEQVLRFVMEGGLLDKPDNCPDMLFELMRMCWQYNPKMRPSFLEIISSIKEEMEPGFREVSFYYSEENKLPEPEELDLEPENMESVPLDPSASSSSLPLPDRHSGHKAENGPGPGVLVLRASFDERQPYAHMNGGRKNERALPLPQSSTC
T5 sequence (P07333 20-972): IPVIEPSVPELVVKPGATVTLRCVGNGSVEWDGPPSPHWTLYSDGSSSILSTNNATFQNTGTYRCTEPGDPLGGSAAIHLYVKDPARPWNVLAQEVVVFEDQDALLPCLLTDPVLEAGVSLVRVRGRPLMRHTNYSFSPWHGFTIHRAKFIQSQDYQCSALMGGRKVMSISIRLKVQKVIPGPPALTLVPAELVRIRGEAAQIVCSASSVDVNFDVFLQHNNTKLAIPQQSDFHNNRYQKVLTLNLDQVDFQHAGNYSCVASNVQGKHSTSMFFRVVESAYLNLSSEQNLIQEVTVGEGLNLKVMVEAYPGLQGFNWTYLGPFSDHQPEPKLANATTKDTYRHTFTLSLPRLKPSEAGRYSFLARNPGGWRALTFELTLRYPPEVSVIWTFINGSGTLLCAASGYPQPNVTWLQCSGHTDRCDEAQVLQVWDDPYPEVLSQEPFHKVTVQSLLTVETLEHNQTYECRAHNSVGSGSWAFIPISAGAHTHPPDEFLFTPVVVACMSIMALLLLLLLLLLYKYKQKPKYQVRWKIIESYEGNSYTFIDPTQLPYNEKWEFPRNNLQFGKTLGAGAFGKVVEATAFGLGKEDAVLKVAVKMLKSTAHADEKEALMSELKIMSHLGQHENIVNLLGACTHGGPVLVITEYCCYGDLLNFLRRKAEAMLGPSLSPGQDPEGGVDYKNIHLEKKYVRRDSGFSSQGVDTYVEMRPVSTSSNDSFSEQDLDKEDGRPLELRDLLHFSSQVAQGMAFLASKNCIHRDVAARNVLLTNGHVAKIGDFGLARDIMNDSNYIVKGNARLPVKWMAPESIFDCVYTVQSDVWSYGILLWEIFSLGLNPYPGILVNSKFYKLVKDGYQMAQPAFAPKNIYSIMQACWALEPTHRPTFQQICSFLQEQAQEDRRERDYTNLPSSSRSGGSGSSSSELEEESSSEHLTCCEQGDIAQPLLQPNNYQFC
T8 sequence (Q9Y463 whole entry): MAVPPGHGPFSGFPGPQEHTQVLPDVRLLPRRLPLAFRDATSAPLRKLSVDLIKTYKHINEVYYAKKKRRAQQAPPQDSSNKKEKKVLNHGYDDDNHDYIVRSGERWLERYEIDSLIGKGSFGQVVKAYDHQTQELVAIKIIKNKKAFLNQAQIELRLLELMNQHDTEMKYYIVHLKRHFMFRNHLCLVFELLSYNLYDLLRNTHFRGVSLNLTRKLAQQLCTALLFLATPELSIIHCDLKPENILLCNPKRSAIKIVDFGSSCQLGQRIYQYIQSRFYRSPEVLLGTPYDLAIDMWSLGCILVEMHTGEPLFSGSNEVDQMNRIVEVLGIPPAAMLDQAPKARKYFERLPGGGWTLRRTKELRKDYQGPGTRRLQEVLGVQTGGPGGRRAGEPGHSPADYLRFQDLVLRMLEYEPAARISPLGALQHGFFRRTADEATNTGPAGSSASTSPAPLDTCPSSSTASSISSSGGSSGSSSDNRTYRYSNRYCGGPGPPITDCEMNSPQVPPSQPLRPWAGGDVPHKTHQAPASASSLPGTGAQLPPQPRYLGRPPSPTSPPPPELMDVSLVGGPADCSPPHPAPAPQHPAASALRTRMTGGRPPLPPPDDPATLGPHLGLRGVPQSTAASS
T3 sequence (O00443 whole entry): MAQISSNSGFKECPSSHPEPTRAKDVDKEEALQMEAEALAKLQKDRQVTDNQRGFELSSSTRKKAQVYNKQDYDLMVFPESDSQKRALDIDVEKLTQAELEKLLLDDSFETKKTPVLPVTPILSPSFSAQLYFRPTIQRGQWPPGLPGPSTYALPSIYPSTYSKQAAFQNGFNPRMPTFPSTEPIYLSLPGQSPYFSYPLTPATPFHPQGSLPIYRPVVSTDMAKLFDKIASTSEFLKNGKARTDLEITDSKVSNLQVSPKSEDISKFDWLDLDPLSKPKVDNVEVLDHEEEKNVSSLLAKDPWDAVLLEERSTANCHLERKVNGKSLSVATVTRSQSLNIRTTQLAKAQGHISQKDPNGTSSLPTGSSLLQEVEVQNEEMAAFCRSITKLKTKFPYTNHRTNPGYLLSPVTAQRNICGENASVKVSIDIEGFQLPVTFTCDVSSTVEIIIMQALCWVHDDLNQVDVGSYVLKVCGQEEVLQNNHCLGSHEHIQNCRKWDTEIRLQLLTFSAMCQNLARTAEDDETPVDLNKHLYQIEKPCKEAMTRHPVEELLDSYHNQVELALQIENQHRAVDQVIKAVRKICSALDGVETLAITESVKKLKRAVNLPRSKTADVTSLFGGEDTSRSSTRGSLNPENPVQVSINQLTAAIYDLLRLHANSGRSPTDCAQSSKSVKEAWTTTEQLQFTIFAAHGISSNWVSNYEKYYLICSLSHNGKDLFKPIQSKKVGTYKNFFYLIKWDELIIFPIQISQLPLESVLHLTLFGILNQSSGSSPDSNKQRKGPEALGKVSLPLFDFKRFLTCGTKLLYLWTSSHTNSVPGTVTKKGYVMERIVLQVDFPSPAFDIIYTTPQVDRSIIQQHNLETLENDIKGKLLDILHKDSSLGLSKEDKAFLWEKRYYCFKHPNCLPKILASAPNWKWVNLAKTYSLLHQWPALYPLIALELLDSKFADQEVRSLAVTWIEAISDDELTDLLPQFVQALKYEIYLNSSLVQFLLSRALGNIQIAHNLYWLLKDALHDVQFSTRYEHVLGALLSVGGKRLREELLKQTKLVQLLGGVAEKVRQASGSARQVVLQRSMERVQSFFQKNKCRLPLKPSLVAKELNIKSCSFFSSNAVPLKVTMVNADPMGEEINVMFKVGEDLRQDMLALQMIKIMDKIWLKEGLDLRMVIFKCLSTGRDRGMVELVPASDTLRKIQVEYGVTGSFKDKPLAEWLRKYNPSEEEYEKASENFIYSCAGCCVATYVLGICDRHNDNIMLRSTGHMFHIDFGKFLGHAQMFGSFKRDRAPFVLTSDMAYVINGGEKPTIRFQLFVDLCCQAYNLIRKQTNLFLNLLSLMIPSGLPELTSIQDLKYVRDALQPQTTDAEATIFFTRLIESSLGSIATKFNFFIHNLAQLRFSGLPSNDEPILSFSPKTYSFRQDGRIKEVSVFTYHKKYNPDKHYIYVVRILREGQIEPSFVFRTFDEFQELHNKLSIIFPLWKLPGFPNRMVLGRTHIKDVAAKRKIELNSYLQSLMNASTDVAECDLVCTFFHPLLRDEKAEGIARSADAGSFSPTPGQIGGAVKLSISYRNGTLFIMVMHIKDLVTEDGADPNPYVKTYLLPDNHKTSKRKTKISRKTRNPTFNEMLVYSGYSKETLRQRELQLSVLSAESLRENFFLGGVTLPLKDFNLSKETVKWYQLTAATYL
T9 sequence (P49841 whole entry): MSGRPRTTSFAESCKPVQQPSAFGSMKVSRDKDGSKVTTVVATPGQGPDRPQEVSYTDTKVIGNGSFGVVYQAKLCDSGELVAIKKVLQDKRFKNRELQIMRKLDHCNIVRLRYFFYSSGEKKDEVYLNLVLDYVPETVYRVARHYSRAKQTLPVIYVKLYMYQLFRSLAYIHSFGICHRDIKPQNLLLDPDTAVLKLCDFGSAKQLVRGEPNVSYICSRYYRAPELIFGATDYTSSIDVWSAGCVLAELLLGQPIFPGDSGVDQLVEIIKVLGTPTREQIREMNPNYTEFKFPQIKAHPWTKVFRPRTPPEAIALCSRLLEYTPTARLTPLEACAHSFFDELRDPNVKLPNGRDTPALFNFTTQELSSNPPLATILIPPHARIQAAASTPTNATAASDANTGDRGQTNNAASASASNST

inhibition at 1 µM (DYRK2) | inhibition at 1 µM (TGFBR1) | inhibition at 1 µM (PIK3C2A) | inhibition at 1 µM (AKT1) | inhibition at 1 µM (CSF1R) | inhibition at 1 µM (CSNK2A1) | inhibition at 1 µM (DYRKIA) | inhibition at 1 µM (DYRK1B) | inhibition at 1 µM (GSK3B) | inhibition at 1 µM (IGF1R) | inhibition at 1 µM (MAP2K2) | inhibition at 1 µM (MAPK1) | inhibition at 1 µM (MET) | inhibition at 1 µM (PRKACA) | inhibition at 1 µM (RET) | inhibition at 1 µM (SRC kinase) | Structure (SMILES) | concentration-dependent inhibition of SRC kinase (in words) (SRC kinase)
-2% | 6% | 3% | 4% | 8% | 5% | 4% | 3% | -1% | 9% | 12% | 10% | 5% | 4% | 6% | 45% | CCN(CC)c1ccc(C(Nc2ccccn2)c2ccc3ccc(C)nc3c2OC)cc1 (stereo not drawn) [Compound 20, N-((4-Diethylaminophenyl)(8-methoxy-2-methylquinolin-7-yl)methyl)pyridin-2-amine] | inhibit SRC kinase in a concentration-dependent fashion
-4% | 2% | -1% | 7% | 10% | 2% | 6% | 3% | 1% | 12% | 14% | 7% | 4% | 6% | 8% | 46% | Cc1ccc2ccc(C(Nc3ccccn3)c3ccncc3)c(O)c2n1 (stereo not drawn) [Compound 39, 7-((Pyridin-4-yl)(pyridin-2-ylamino)methyl)-2-methylquinolin-8-ol] | inhibit SRC kinase in a concentration-dependent fashion
-1% | -2% | 0% | 10% | 8% | 2% | 4% | 5% | 4% | 9% | 16% | 12% | 4% | 7% | 5% | 39% | Cc1ccc2ccc(C(Nc3ccccn3)c3ccc(N4CCCC4=O)cc3)c(O)c2n1 (stereo not drawn) [Compound 48, 7-((4-(2-Oxopyrrolidin-1-yl)phenyl)(pyridin-2-ylamino)methyl)-2-methylquinolin-8-ol] | inhibit SRC kinase in a concentration-dependent fashion
